# Reference: patent US20250092031A1, “RIPK3 INHIBITORS AND METHODS OF USE” (Momentum Therapeutics, Inc., priority 2023, published 2025)
# Test system: Murine L929 cells
# Test: Necroptosis inhibition assay in L929 cells (mTNFα + zVAD, Sytox Green)
# Format: cell-based
# Conditions: Mus musculus, 10 ng/ml mTNFα and 20 μM zVAD, 6 hours, Sytox Green fluorescence
# Protocol: Murine L929 cells (ATCC-CCL-1) were seeded at 10,000 cells/well in a 96-well plate. Cells were treated 48 hours after seeding with 10 ng/ml mTNFα (R&D Systems) and 20 μM zVAD (ChemShuttle) in the presence of different concentrations of compounds ranging from […] to 0.01 μM. Cells treated with 0.1% DMSO or cells treated with TNFα+zVAD were used as control and vehicle respectively.
# Assay plates containing cells were incubated for 6 hours at 37° C. and 5% CO2. Necroptosis was assessed using Sytox Green Nucleic Acid Stain (Invitrogen). After incubation, 100 μL of Sytox dye at 2 μM (2×) diluted in HBSS 1× was added in each well and incubated for 15 min at room temperature. Fluorescence (500ex/530em) was recorded using the Cytation 5 microplate reader (Biotek).
# Percentage of necroptosis inhibition was calculated as the percent compared to control and vehicle conditions which correspond to 100% and 0% respectively. The half-maximum necroptosis inhibition (IC50) levels were calculated using GraphPad Prism software and are shown in Table 3 (NT represents compound not tested).
row,SMILES,IC50 [µM]
1,"COc1ccc(-c2ccc3c(Nc4ccc(C5CCN(C)CC5)c(F)c4)ccnc3c2)cc1 [Compound 2, N-(3-fluoro-4-(1-methylpiperidin-4-yl)phenyl)-7-(4-methoxyphenyl)quinolin-4-amine]",> 10
2,"CN1CCC(c2ccc(Nc3ccnc4cc(-c5ccccc5F)ccc34)nc2)CC1 [Compound 3, 7-(2-fluorophenyl)-N-(5-(1-methylpiperidin-4-yl)pyridin-2-yl)quinolin-4-amine]",> 10
3,"CN1CCC(c2ccc(Nc3ccc4nccc(Nc5ccc6scnc6c5)c4c3)cc2F)CC1 [Compound 4, N4-(benzo[d]thiazol-5-yl)-N6-(3-fluoro-4-(1-methylpiperidin-4-yl)phenyl)quinoline-4,6-diamine]",> 10
4,"CN1CCC(c2ccc(Nc3ccnc4cc(-c5ccccc5F)ccc34)cc2F)CC1 [Compound 5, N-(3-fluoro-4-(1-methylpiperidin-4-yl)phenyl)-7-(2-fluorophenyl)quinolin-4-amine]",> 10
5,"CN1CCC(c2ccc(Nc3ccnc4cc(-c5ccccn5)ccc34)cc2F)CC1 [Compound 6, N-(3-fluoro-4-(1-methylpiperidin-4-yl)phenyl)-7-(pyridin-2-yl)quinolin-4-amine]",> 10
6,"COc1ccc(-c2ccc3c(Nc4ccc(C5CCN(C)CC5)cn4)ccnc3c2)cc1 [Compound 7, 7-(4-methoxyphenyl)-N-(5-(1-methylpiperidin-4-yl)pyridin-2-yl)quinolin-4-amine]",> 10
7,"CN1CCC(c2ccc(Nc3ccnc4cc(-c5ccccn5)ccc34)nc2)CC1 [Compound 8, N-(5-(1-methylpiperidin-4-yl)pyridin-2-yl)-7-(pyridin-2-yl)quinolin-4-amine]",> 10
8,"CN1CCC(c2ccc(Nc3ccc4nccc(Nc5ccc6scnc6c5)c4c3)nc2)CC1 [Compound 9, N4-(benzo[d]thiazol-5-yl)-N6-(5-(1-methylpiperidin-4-yl)pyridin-2-yl)quinoline-4,6-diamine]",> 10
9,"Cc1ccc(Oc2ccnc3cc(-c4ccc(CN5CCN(C)CC5)c(F)c4)ccc23)cc1 [Compound 10, 7-(3-fluoro-4-((4-methylpiperazin-1-yl)methyl)phenyl)-4-(p-tolyloxy)quinoline]",> 10
10,"c1cc(Nc2ccc3scnc3c2)c2cc(-c3ccc(N4CCOCC4)cc3)ccc2n1 [Compound 18, N-(6-(4-morpholinophenyl)quinolin-4-yl)benzo[d]thiazol-5-amine]",< 10
11,"COc1ccc(Nc2ccnc3ccc(-c4ccc(N5CCN(C)CC5)cc4)cc23)cc1OC [Compound 19, N-(3,4-dimethoxyphenyl)-6-(4-(4-methylpiperazin-1-yl)phenyl)quinolin-4-amine]",> 10
12,"CN1CCN(c2ccc(-c3ccc4nccc(Nc5ccc(Cl)c(Cl)c5)c4c3)cc2)CC1 [Compound 20, N-(3,4-dichlorophenyl)-6-(4-(4-methylpiperazin-1-yl)phenyl)quinolin-4-amine]",< 10
13,"CN1CCN(c2ccc(-c3ccc4nccc(Nc5ccc6scnc6c5)c4c3)cn2)CC1 [Compound 24, N-(6-(6-(4-methylpiperazin-1-yl)pyridin-3-yl)quinolin-4-yl)benzo[d]thiazol-5-amine]",< 10
14,"c1cc(Nc2ccc3scnc3c2)c2cc(-c3ccc(N4CCCCC4)nc3)ccc2n1 [Compound 25, N-(6-(6-(piperidin-1-yl)pyridin-3-yl)quinolin-4-yl)benzo[d]thiazol-5-amine]",> 10
15,"Nc1nc2cc(Nc3ccnc4ccc(-c5ccc(CN6CCCC6)cc5F)cc34)ccc2s1 [Compound 26, N5-(6-(2-fluoro-4-(pyrrolidin-1-ylmethyl)phenyl)quinolin-4-yl)benzo[d]thiazole-2,5-diamine]",> 10
16,"c1cc(Nc2ccc3scnc3c2)c2cc(-c3ccc(N4CCCC4)cc3)ccc2n1 [Compound 30, N-(6-(4-(pyrrolidin-1-yl)phenyl)quinolin-4-yl)benzo[d]thiazol-5-amine]",> 10
17,"COc1ccc(Nc2ccnc3ccc(-c4ccc(CN5CCN(C)CC5)cc4F)cc23)cc1OC [Compound 32, N-(3,4-dimethoxyphenyl)-6-(2-fluoro-4-((4-methylpiperazin-1-yl)methyl)phenyl)quinolin-4-amine]",> 10
18,"CN1CCN(Cc2ccc(-c3ccc4nccc(Nc5ccc(Cl)c(F)c5)c4c3)c(F)c2)CC1 [Compound 33, N-(4-chloro-3-fluorophenyl)-6-(2-fluoro-4-((4-methylpiperazin-1-yl)methyl)phenyl)quinolin-4-amine]",< 10
19,"CC(C)(C)OC(=O)N1CCN(Cc2ccc(-c3ccc4nccc(Nc5ccc6scnc6c5)c4c3)c(F)c2)CC1 [Compound 38, tert-butyl 4-(4-(4-(benzo[d]thiazol-5-ylamino)quinolin-6-yl)-3-fluorobenzyl)piperazine-1-carboxylate]",< 10
20,"N#Cc1cc(-c2ccc3nccc(Nc4ccc5scnc5c4)c3c2)ccc1N1CCCC1 [Compound 39, 5-(4-(benzo[d]thiazol-5-ylamino)quinolin-6-yl)-2-(pyrrolidin-1-yl)benzonitrile]",> 10
21,"Fc1cc(CN2CCC(C(F)(F)F)CC2)ccc1-c1ccc2nccc(Nc3ccc4scnc4c3)c2c1 [Compound 42, N-(6-(2-fluoro-4-((4-(trifluoromethyl)piperidin-1-yl)methyl)phenyl)quinolin-4-yl)benzo[d]thiazol-5-amine]",< 10
22,"c1cc(Nc2ccc3scnc3c2)c2cc(-c3ccc(OCCN4CCCCC4)cc3)ccc2n1 [Compound 44, N-(6-(4-(2-(piperidin-1-yl)ethoxy)phenyl)quinolin-4-yl)benzo[d]thiazol-5-amine]",< 10
23,"Fc1ccc(CN2CCCCC2)cc1-c1ccc2nccc(Nc3ccc4scnc4c3)c2c1 [Compound 55, N-(6-(2-fluoro-5-(piperidin-1-ylmethyl)phenyl)quinolin-4-yl)benzo[d]thiazol-5-amine]",< 10
24,"Fc1ccc(CN2CCCCC2)cc1-c1ccc2c(Nc3ccc4scnc4c3)ccnc2c1 [Compound 56, N-(7-(2-fluoro-5-(piperidin-1-ylmethyl)phenyl)quinolin-4-yl)benzo[d]thiazol-5-amine]",> 10
25,"CC(C)(C)OC(=O)N1C2CCC1CN(Cc1ccc(-c3ccc4nccc(Nc5ccc6scnc6c5)c4c3)c(F)c1)C2 [Compound 57, tert-butyl 3-(4-(4-(benzo[d]thiazol-5-ylamino)quinolin-6-yl)-3-fluorobenzyl)-3,8-diazabicyclo[3.2.1]octane-8-carboxylate]",> 10
26,"CC(C)(C)OC(=O)N1C2CCC1CN(Cc1ccc(-c3ccc4c(Nc5ccc6scnc6c5)ccnc4c3)c(F)c1)C2 [Compound 58, tert-butyl 3-(4-(4-(benzo[d]thiazol-5-ylamino)quinolin-7-yl)-3-fluorobenzyl)-3,8-diazabicyclo[3.2.1]octane-8-carboxylate]",< 10
27,"O=C(CO)N1CCC(c2ccc(-c3ccc4nccc(Nc5ccc6scnc6c5)c4c3)cc2)CC1 [Compound 239, 1-(4-(4-(4-(benzo[d]thiazol-5-ylamino)quinolin-6-yl)phenyl)piperidin-1-yl)-2-hydroxyethan-1-one]",< 1
28,"c1cc(Nc2ccc3scnc3c2)c2cc(-c3ccc(C4CCNCC4)cc3)ccc2n1 [Compound 240, N-(6-(4-(piperidin-4-yl)phenyl)quinolin-4-yl)benzo[d]thiazol-5-amine]",> 1
